Reference: patent US10010581B2, “Syndecan peptides and polypeptides and uses thereof” (Wisconsin Alumni Research Foundation, priority 2012, dated 2018)
Where no end group is shown, it is not given here.

Key:
Type in all cases: cell-based, human
[1] = system: HaCat keratinocytes or MCF10A mammary epithelial cells; test: competition of LPA-induced haptotactic migration by GST fusion proteins or synthetic peptides (FIG. 10 summary); conditions: 0.1 to 30 μM, 3 μM LPA
Experimental: FIGS. 10A-C. Schematic summary of experiments using either recombinant GST fusion proteins or synthetic peptides to disrupt Sdc1-dependent coupling of HER2 to α6β4 integrin necessary for LPA-induced haptotactic migration. GST-fusion proteins or synthetic peptides were added at concentrations ranging from 0.1 to 30 μM to the culture medium of human HaCat keratinocytes or MCF10A mammary epithelial cells in the presence or absence of 3 μM LPA. The ability of the constructs to inhibit the migration of the cells to close a scratch wound in confluent monolayers was determined and expressed as the concentration of inhibitor necessary to cause 50% inhibition of cell migration. (FIG. 10A) Competition using recombinant GST-fusion proteins. GST-Sdc1 fusion proteins bearing truncations or mutations were assessed for their competitive activity. […] (FIG. 10B) Competition with synthetic peptides. Peptides were purchased from commercial sources for testing as a putative synstatin inhibitory peptide (SSTNHER2). […] (FIG. 10C) Schematic representation of the active site in Sdc1. The active site is shown as a juxtamembrane site in the ectodomain of Sdc1. TM is the transmembrane domain and CYTO is the cytoplasmic domain. The sequence of a peptide derived from this site (SSTNHER2) is shown along with its homology across other mammalian Sdc1 species. The human STTNHER2 sequence is SEQ ID NO:23; the homology for STTNHER2 across mammals is SEQ ID NO:24.
(§1) HaCat or MCF10A cells were grown to confluence on 48 well-plates were starved for 6 hr by serum deprivation followed by introduction of a scratch wound in the monolayer using 200 μl pipette tip. Cells were cultured an additional 18 hr in DMEM containing mAb 3E1 (10 μg/ml) and goat anti-mouse IgG (50 μg/ml), EGF (10 ng/ml) or HGF (20 ng/ml) to cause cell migration in the presence or absence of inhibitors. Images were acquired using a PlanApo 20 (0.75 numerical aperture) objective and a Photometrics CoolSnap ES camera on a Nikon Eclipse TE2000U microscopy system and wound closure quantified.

[2] = system: MCF10A mammary epithelial cells; test: scratch wound haptotaxis induced by clustering the α6β4 integrin; conditions: α6β4 integrin clustered
Experimental: FIG. 9. Sdc1 ectodomain fragments and β4 dominant-negative mutant specific for Sdc1/α6β4/HER2 block MCF10A mammary epithelial cell migration. Haptotaxis of MCF10A human mammary epithelial cells induced by clustering the α6β4 integrin in a scratch wound assay is used to test the efficacy of inhibitors that target the Sdc1 mechanism. Cells are incubated either with entire recombinant syndecan ectodomains (Sdc1 ectodomain (S1ED) or Sdc4 ectodomain (S4ED) as a control), or an active fragment of mouse S1ED (S1ED^200-252) containing the inhibitory site.
as §1
The inventor used this assay to further truncate the S1ED recombinant proteins in order to find the smallest peptide that retains full inhibitory activity (e.g., SSTNHER2). The inventor tested mouse and human S1ED and find that they compete equally. […]

HaCat keratinocytes = test: scratch wound haptotaxis induced by LPA and clustering of α6β4 integrin; conditions: LPA + α6β4 clustered with mAb 3E1 and secondary antibody, AG825 10 μM, Iressa 1 μM
Text: FIG. 6A-D. Sdc1 is required for HER2/α6β4-dependent HaCat keratinocyte migration. (FIG. 6A) HaCat keratinocytes deposit laminin 332 (LN332) and migrate upon this using α3β1 and α6β4 integrins to close a scratch wound in the monolayer when stimulated to undergo chemotaxis in response to EGF. Alternatively, migration is induced by clustering the integrin (using mAb 3E1 against the integrin+a secondary antibody to cluster the first antibody and thus the entire complex) in the presence of LPA. This mimics the clustering that occurs when the cells engage LN332 and is referred to as haptotaxis. […] (FIG. 6B) Haptotaxis, stimulated by LPA and clustering of α6β4 integrin as described in FIG. 6A, is blocked by antibody directed against the α3β1 integrin or by BM165 which targets the binding site for α3β1 in LN332. […] (FIG. 6C) The potential roles of Sdc1 or Sdc4 in haptotaxis is tested by silencing their expression, together with attempting to rescue with either wild-type mouse Sdc1 or Sdc4, or mouse mutants unable to engage the β4 cytoplasmic domain (mSdc1ΔC2 or mSdc4ΔC2). Haptotaxis is blocked by silencing endogenous Sdc1, and this cannot be rescued by Sdc1ΔC2 that fails to engage the α6β4 integrin. Silencing Sdc4 also disrupts migration, but this traces to its role in activity of the α3β1 integrin and not a role in engaging the α6β4 integrin, as it can be rescued by mSdc4ΔC2 that fails to associate with the α6β4 integrin. (FIG. 6D) Immunoprecipitation of either native mSdc4 or mSdc4[…]C2 confirms that the mSdc4ΔC2 mutant no longer associates with the α6β4 integrin, but does with the α3β1 integrin. […]
HaCat or MCF10A cells were grown to confluence on 48 well-plates were starved for 6 hr by serum deprivation followed by introduction of a scratch wound in the monolayer using 200 μl pipette tip. […] Images were acquired using a PlanApo 20 (0.75 numerical aperture) objective and a Photometrics CoolSnap ES camera on a Nikon Eclipse TE2000U microscopy system and wound closure quantified. […]

A431 cells = test: A431 cell attachment and spreading on LN332; conditions: 2 hr, mAb13 30 μg/ml, heparinase III 0.4 CU/ml, Sdc1 siRNA 100 nM
Experimental: FIGS. 2A-E. Requirement of syndecan-1 for A431 cell spreading on LN332. A431 […] cells plated on slides coated with 10 μg/ml LN332 (FIG. 2A) without treatment; (FIG. 2B) with blocking antibody 3E1 to α6β4; (FIG. 2C) prior treatment with heparinase III; or (FIG. 2D) prior treatment with siRNA specific for human Sdc1. (FIG. 2E) Quantification of spread cells plated on LN332 and treated with blocking antibody to β1 integrin (mAb13 30 μg/ml) or control IgG (20 μg/ml), 3E1 blocking antibody (20 ug/ml) to β4 integrin, heparinase III (0.4 CU/ml) or human Sdc1 siRNA (100 nM). Data represent triplicate experiments +/−S.D. (Wang et al., 2010).
Nitrocellulose-coated 10-well glass slides (Erie Scientific, Portsmouth, N.H.) were prepared as described by Beauvais and. Rapraeger (2010). Wells of slide were coated at 37° C. for 2 h with mAb 3E1 (3 μg/ml), diluted in phosphate-buffered saline (CMF-PBS: 135 mM NaCl, 2.7 mM KCl, 10.2 mM Na2HPO47H2O, and 1.75 mM KH2PO4, pH 7.4), and blocked with serum-free Hepes-buffered DMEM (pH 7.4) containing 0.1% heat-denatured bovine serum albumin (plating medium). Cells were lifted with trypsin (0.25% w/v), washed with DMEM, and regenerated in suspension for 1 h at 37° C. in DMEM containing 10% fetal bovine serum. Cells were then plated in wells (50 μl/well) in plating medium at 10^5 cells/ml. […]

Row | Molecule | competitive (inhibitory) activity on haptotactic migration [1] | haptotaxis (migration to close a scratch wound) (HaCat keratinocytes) | also measured
1 | 210-236: truncated synthetic peptide, amino acids 210-236 of human Sdc1 (DFTFETSGENTAVVAVEPDRRNQSPVD; UniProt P18827 210-236, looked up, fragment) | loss of activity |  | 
2 | S1ED^200-252: active fragment of mouse S1ED containing the inhibitory site, recombinant fusion protein (QLPAGEGSGEQDFTFETSGENTAVAAVEPGLRNQPPVDEGATGASQSLLDRKE; also: recombinant fusion protein, partner not given here; UniProt P18828 200-252, looked up, fragment) |  |  | haptotaxis (migration to close a scratch wound) [2]: competes for haptotaxis
3 | COc1cc2ncnc(Nc3ccc(F)c(Cl)c3)c2cc1OCCCN1CCOCC1 [Iressa] |  | without effect | 
4 | COc1cc(/C=C(\C#N)C(N)=O)cc(CSc2nc3ccccc3s2)c1O [AG825] |  | blocks migration | 
5 | 214-240: truncated synthetic peptide, amino acids 214-240 of human Sdc1 (ETSGENTAVVAVEPDRRNQSPVDQGAT; UniProt P18827 214-240, looked up, fragment) | loss of activity |  | 
6 | heparinase: enzyme treatment that blocks the ability of Sdc1 to bind LN332 (protein, UniProt Q59289 25-659, looked up) Heparin-sulfate lyase: QSSSITRKDFDHINLEYSGLEKVNKAVAAGNYDDAAKALLAYYREKSKAREPDFSNAEKPADIRQPIDKVTREMADKALVHQFQPHKGYGYFDYGKDINWQMWPVKDNEVRWQLHRVKWWQAMALVYHATGDEKYAREWVYQYSDWARKNPLGLSQDNDKFVWRPLEVSDRVQSLPPTFSLFVNSPAFTPAFLMEFLNSYHQQADYLSTHYAEQGNHRLFEAQRNLFAGVSFPEFKDSPRWRQTGISVLNTEIKKQVYADGMQFELSPIYHVAAIDIFLKAYGSAKRVNLEKEFPQSYVQTVENMIMALISISLPDYNTPMFGDSWITDKNFRMAQFASWARVFPANQAIKYFATDGKQGKAPNFLSKALSNAGFYTFRSGWDKNATVMVLKASPPGEFHAQPDNGTFELFIKGRNFTPDAGVFVYSGDEAIMKLRNWYRQTRIHSTLTLDNQNMVITKARQNKWETGNNLDVLTYTNPSYPNLDHQRSVLFINKKYFLVIDRAIGEATGNLGVHWQLKEDSNPVFDKTKNRVYTTYRDGNNLMIQSLNADRTSLNEEEGKVSYVYNKELKRPAFVFEKPKKNAGTQNFVSIVYPYDGQKAPEISIRENKGNDFEKGKLNLTLTINGKQQLVLVP |  |  | cell spreading on LN332 (A431 cells): disrupted
